Measurements as given in PMC5570900, “Exploiting a novel conformational switch to control innate immunity mediated by complement protein C3a” (Nature Communications, 2017).

Key:
Assay type in all cases: cell-based
C3aR [1] = biological target: T1, C3aR (Homo sapiens, UniProt Q16581); assay: Histamine secretion in human LAD2 mast cells (agonist mode); set-up: Concentration-dependent histamine secretion in human LAD2 mast cells; endogenous in cells; host or cells: LAD2 human mast cells; conditions: compound alone, 30 min, n ≥ 3, ± SEM
T1 sequence (Q16581 1-482): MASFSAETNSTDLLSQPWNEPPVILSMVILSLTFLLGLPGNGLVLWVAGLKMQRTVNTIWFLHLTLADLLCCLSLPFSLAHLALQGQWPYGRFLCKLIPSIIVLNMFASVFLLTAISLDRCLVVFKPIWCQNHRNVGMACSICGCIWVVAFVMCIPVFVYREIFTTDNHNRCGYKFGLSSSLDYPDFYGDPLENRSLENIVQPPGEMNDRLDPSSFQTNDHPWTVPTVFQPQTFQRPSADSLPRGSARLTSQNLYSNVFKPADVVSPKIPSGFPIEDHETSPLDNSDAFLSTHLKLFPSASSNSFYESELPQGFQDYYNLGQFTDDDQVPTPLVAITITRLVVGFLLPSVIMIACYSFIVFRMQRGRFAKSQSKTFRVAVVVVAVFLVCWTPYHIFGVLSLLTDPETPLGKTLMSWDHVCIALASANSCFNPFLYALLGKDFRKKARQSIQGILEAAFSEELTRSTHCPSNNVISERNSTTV
Description: (§1) LAD2 human mast cells (kindly provided by Dr Dean Metcalfe, National Institute of Allergy and Infectious Diseases, National Institute of Health) were cultured in StemPro®-34 Serum Free Media (Invitrogen, Australia) supplemented with StemPro®-34 nutrient, 100 U/mL penicillin, 100 μg/mL streptomycin, 2 mM GlutaMAX, and 100 ng/mL human stem cell factor (SCF). Cells were hemi-depleted weekly and were not allowed to grow beyond a density of 0.5 × 10^6/mL. This cell line was authenticated by expression of tryptase and histamine granules. For the histamine assay, 1 × 10^4 cells per well were seeded in StemPro®-34 SFM in 96-well plates for 30 min before any treatments. For agonist studies, the cells were treated with compounds prepared in media for 30 min. For antagonist studies, the cells were pre-treated with compounds prepared in SFM for 30 min before addition of C3aR agonists for another 30 min. Cells were centrifuged (500 g, 5 min, 4 °C) and cell-free supernatants were collected for measuring histamine. Histamine content was measured using the histamine EIA kit according to the manufacturer’s instructions (Abnova, Taiwan). The readings were recorded on a FLUOstar Optima (BMG LabTechnologies, Offenburg, Germany).

C3aR [2] = biological target: T1, C3aR; assay: Intracellular Ca2+ release in human monocyte-derived macrophages (agonist mode); set-up: Concentration-dependent Ca^2+ release in human monocyte-derived macrophages (HMDMs); endogenous in cells; host or cells: primary human monocyte-derived macrophages (HMDMs); conditions: HMDMs, n ≥ 3, ± SEM
Description: (§2) HMDMs were isolated using Ficoll-paque density centrifugation (GE Healthcare Bio-Science, Uppsala, Sweden) from buffy coat (of anonymous human donors) provided by the Australian Red Cross Blood Service, Brisbane. CD14^+ monocytes were positively selected using CD14 MicroBeads (Miltenyi Biotech, Auburn, USA)[40], [41]. CD14^+ monocytes were differentiated to HMDMs using 100 ng/mL of recombinant human macrophage colony-stimulating factor (PeptroTech, Rocky Hill, USA) for 7 days in Iscove’s modified Dulbecco’s media supplemented with 10% fetal bovine serum, penicillin (100 U/mL), streptomycin (100 µg/mL) and L-glutamine (2 mM). HMDMs were supplemented after 5 days with fresh medium containing 10 ng/ml macrophage colony-stimulating factor and collected by gentle scraping on day 7.
(§3) HMDMs were seeded to a 96-well clear-bottom black-wall assay plate at a density of 5 × 10^4 cells per well and allowed to adhere overnight. Prior to assay, cells were incubated with dye-loading buffer (Hank’s balance salt solution (HBSS) buffer, 4 μM Fluo-3 AM, 25 μl Pluronic acid F-127 and 1% fetal bovine serum) for 1 h at 37 °C. Cells were then washed once with assay buffer (HBSS supplemented with 2.5 mM probenecid and 20 mM HEPES, pH 7.4). Intracellular calcium release was monitored using a fluorescence imaging plate reader (excitation 495 nm, emission 520 nm). The percentage responses were plotted against logarithmic concentrations of each test compound[42].

C3aR [3] = biological target: T1, C3aR; assay: Inhibition of hC3a-induced Ca2+ release in human monocyte-derived macrophages; set-up: Concentration-dependent Ca^2+ release in human monocyte-derived macrophages (HMDMs); endogenous in cells; host or cells: primary human monocyte-derived macrophages (HMDMs); conditions: HMDMs, hC3a 100 nM, n ≥ 3, ± SEM
Description: as §2, §3

C3aR [4] = biological target: T1, C3aR; assay: Inhibition of hC3a-induced histamine secretion in human LAD2 mast cells (antagonist mode); set-up: Concentration-dependent histamine secretion in human LAD2 mast cells; endogenous in cells; host or cells: LAD2 human mast cells; conditions: hC3a 100 nM, pre-treated 30 min, n ≥ 3, ± SEM
Description: as §1

EC50 (C3aR [1]) | EC50 (C3aR [2]) | IC50 (C3aR [3]) | IC50 (C3aR [4]) | SMILES
20 ± 10 nM | 22 ± 8 nM | – | – | Cc1[nH]c(C(c2ccccc2)c2ccccc2)nc1C(=O)N[C@@H](CCCNC(=N)N)C(=O)O [Compound 3]
– | – | 85 ± 40 nM | 3.5 ± 1.5 nM | N=C(N)NCCCC(NC(=O)c1ccc(C(c2ccccc2)c2ccccc2)s1)C(=O)O (stereo not shown) [Compound 6]
